Values joined by “and” are separate entries in the source; they are usually repeats but may differ in a detail not shown here. Identical values can stand only once. ± gives the expanded uncertainty stated by the source.
Conditions: Fluid (supercritical or subcritical phases), Buoyancy - hydrostatic balance with magnetic suspension - two sinkers

CCC [propane]
Conditions	mass density
330 K, 278.72 kPa	4.6293 ± 0.0029 kg/m3 [middle of 4 runs]
330 K, 492.57 kPa	8.4128 ± 0.0033 kg/m3 and 8.4127 ± 0.0033 kg/m3
330 K, 492.58 kPa	8.4128 ± 0.0033 kg/m3 and 8.4127 ± 0.0033 kg/m3
330 K, 817.85 kPa	14.6343 ± 0.0041 kg/m3
330 K, 817.86 kPa	14.6347 ± 0.0041 kg/m3 and 14.6346 ± 0.0041 kg/m3 and 14.6343 ± 0.0041 kg/m3
330 K, 817.87 kPa	14.6348 ± 0.0041 kg/m3
330 K, 1346.8 kPa	26.4281 ± 0.034 kg/m3
330 K, 1347 kPa	26.4322 ± 0.034 kg/m3
330 K, 1347.2 kPa	26.4396 ± 0.034 kg/m3
330 K, 1347.3 kPa	26.4407 ± 0.034 kg/m3 and 26.4409 ± 0.034 kg/m3
330 K, 1714.5 kPa	36.5728 ± 0.039 kg/m3 [middle of 5 runs]
335 K, 1765.2 kPa	36.7322 ± 0.25 kg/m3 and 36.7333 ± 0.25 kg/m3 and 36.7309 ± 0.25 kg/m3
335 K, 1765.3 kPa	36.7327 ± 0.25 kg/m3 and 36.733 ± 0.25 kg/m3
340 K, 287.12 kPa	4.6188 ± 0.0029 kg/m3 and 4.6185 ± 0.0029 kg/m3
340 K, 287.13 kPa	4.6186 ± 0.0029 kg/m3
340 K, 508.31 kPa	8.392 ± 0.0033 kg/m3 and 8.3919 ± 0.0033 kg/m3
340 K, 508.32 kPa	8.3921 ± 0.0033 kg/m3
340 K, 508.33 kPa	8.3921 ± 0.0033 kg/m3
340 K, 846.05 kPa	14.5839 ± 0.0041 kg/m3
340 K, 846.06 kPa	14.584 ± 0.0041 kg/m3 and 14.5839 ± 0.0041 kg/m3
340 K, 846.07 kPa	14.5839 ± 0.0041 kg/m3
340 K, 1352.2 kPa	25.1571 ± 0.032 kg/m3
340 K, 1352.4 kPa	25.1613 ± 0.032 kg/m3 and 25.1637 ± 0.032 kg/m3
340 K, 1352.5 kPa	25.161 ± 0.032 kg/m3
340 K, 1352.7 kPa	25.168 ± 0.032 kg/m3
340 K, 1816.9 kPa	36.9173 ± 0.043 kg/m3
340 K, 1817.1 kPa	36.9239 ± 0.043 kg/m3 and 36.9243 ± 0.043 kg/m3
340 K, 2355.2 kPa	55.4656 ± 0.27 kg/m3
340 K, 2355.4 kPa	55.4825 ± 0.27 kg/m3 and 55.4906 ± 0.27 kg/m3
340 K, 2355.5 kPa	55.5083 ± 0.27 kg/m3
340 K, 2355.8 kPa	55.4793 ± 0.27 kg/m3
340 K, 3925.4 kPa	425.071 ± 0.072 kg/m3 and 425.069 ± 0.072 kg/m3
340 K, 3925.5 kPa	425.072 ± 0.072 kg/m3
340 K, 3925.6 kPa	425.073 ± 0.072 kg/m3 and 425.071 ± 0.072 kg/m3 and 425.072 ± 0.072 kg/m3
340 K, 3925.7 kPa	425.072 ± 0.072 kg/m3 and 425.071 ± 0.072 kg/m3
340 K, 3925.8 kPa	425.071 ± 0.072 kg/m3 and 425.072 ± 0.072 kg/m3
340 K, 8053.4 kPa	448.649 ± 0.055 kg/m3
340 K, 8053.5 kPa	448.65 ± 0.055 kg/m3
340 K, 8053.6 kPa	448.651 ± 0.055 kg/m3
340 K, 8053.8 kPa	448.649 ± 0.055 kg/m3
340 K, 8054.1 kPa	448.649 ± 0.055 kg/m3
340 K, 12040 kPa	464.072 ± 0.057 kg/m3 and 464.071 ± 0.057 kg/m3
340 K, 12041 kPa	464.071 ± 0.057 kg/m3
340 K, 16069 kPa	476.246 ± 0.058 kg/m3 and 476.247 ± 0.058 kg/m3 and 476.248 ± 0.058 kg/m3
340 K, 16070 kPa	476.248 ± 0.058 kg/m3
340 K, 19781 kPa	485.636 ± 0.059 kg/m3
340 K, 19783 kPa	485.642 ± 0.059 kg/m3 and 485.644 ± 0.059 kg/m3
340 K, 19784 kPa	485.647 ± 0.059 kg/m3 [middle of 4 runs]
340 K, 19785 kPa	485.649 ± 0.059 kg/m3
340 K, 19943 kPa	485.999 ± 0.059 kg/m3
340 K, 19946 kPa	486.007 ± 0.059 kg/m3 and 486.009 ± 0.059 kg/m3 and 486.006 ± 0.059 kg/m3
340 K, 19947 kPa	486.007 ± 0.059 kg/m3
340 K, 23981 kPa	494.781 ± 0.06 kg/m3 and 494.78 ± 0.06 kg/m3
340 K, 23982 kPa	494.781 ± 0.06 kg/m3
340 K, 29812 kPa	505.708 ± 0.061 kg/m3
340 K, 29815 kPa	505.714 ± 0.061 kg/m3
340 K, 29816 kPa	505.715 ± 0.061 kg/m3 and 505.712 ± 0.061 kg/m3
340 K, 29817 kPa	505.713 ± 0.061 kg/m3
